# Experimental data: patent US20060069132A1, “Azolecarboxamide herbicides” (priority 2004, published 2006)
# Tests used:
# barnyardgrass [1] = assay: Test B pre-/postemergence herbicide test; format: in vivo, Echinochloa crus-galli; conditions: for Plant response rating (0 to 100 scale), Barnyardgrass: 0 is no effect, preemergence
# Summary of the method: (§1)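 Formulation: non-phytotoxic solvent mix with surfactant. Timing: preemergence on seed and postemergence on 2–18 cm plants, applied concurrently. Readout after 13–15 d greenhouse: visual 0–100 control rating against controls.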
# morningglory = assay: Test B pre-/postemergence herbicide test; format: in vivo, Ipomoea coccinea; conditions: for Plant response rating (0 to 100 scale), Morningglory: 0 is no effect, 100 is complete control, preemergence; for Morningglory plant response rating: scale 0 (no effect) to 100 (complete control)
# Summary of the method: as §1
# giant foxtail = assay: Test B pre-/postemergence herbicide test; format: in vivo, Setaria faberi; conditions: for Plant response rating (0 to 100 scale), Foxtail, Giant: 0 is no effect, preemergence
# Summary of the method: as §1
# wild oat = assay: Test B postemergence herbicide test; format: in vivo, Avena fatua; conditions: scale 0 (no effect) to 100 (complete control)
# Summary of the method: (§2)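 Greenhouse test; postemergence application to plants at 1–4 leaves (2–18 cm); paddy species at 2 leaves; evaluated visually vs controls at 13–15 days; scale 0–100 (100 = complete control).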
# cocklebur = assay: Test B pre-/postemergence herbicide test; format: in vivo, Xanthium strumarium; conditions: for Plant response rating (0 to 100 scale), Cocklebur: 0 is no effect, preemergence
# Summary of the method: as §1
# large crabgrass = assay: Test B pre-/postemergence herbicide test; format: in vivo, Digitaria sanguinalis; conditions: for Plant response rating (0 to 100 scale), Crabgrass, Large: 0 is no effect, preemergence
# Summary of the method: as §1
# [2] = test system: small flower umbrella sedge; assay: Test B flooded paddy test; format: in vivo, Cyperus difformis; conditions: 1000 g ai/ha, scale 0 to 100 (0 no effect, 100 complete control)
# Summary of the method: (§3)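 Scale 0–100: zero equals no visible effect, 100 complete control, judged by eye relative to controls. Timing: 13 to 15 days in greenhouse post-treatment. Growth stage at spraying: two leaves (paddy) or one to four leaves, 2–18 cm (postemergence).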
# blackgrass = assay: Test B postemergence herbicide test; format: in vivo, Alopecurus myosuroides
# Summary of the method: as §3
# pigweed = assay: Test B pre-/postemergence herbicide test; format: in vivo, Amaranthus retroflexus; conditions: for Plant response rating (0 to 100 scale), Pigweed: 0 is no effect, 100 is complete control, preemergence; for Pigweed plant response rating: scale 0 (no effect) to 100 (complete control)
# Summary of the method: as §1
# ducksalad = assay: Test B flooded paddy test; format: in vivo, Heteranthera limosa; conditions: 1000 g ai/ha, scale 0 to 100 (0 no effect, 100 complete control)
# Summary of the method: as §3
# lambsquarters = assay: Test B pre-/postemergence herbicide test; format: in vivo, Chenopodium album; conditions: for Plant response rating (0 to 100 scale), Lambsquarters: 0 is no effect, 100 is complete control, preemergence; for Lambsquarters plant response rating: scale 0 (no effect) to 100 (complete control)
# Summary of the method: as §1
# Surinam grass = assay: Test B pre-/postemergence herbicide test; format: in vivo, Urochloa decumbens; conditions: for Plant response rating (0 to 100 scale), Surinam Grass: 0 is no effect, 100 is complete control, preemergence; for Surinam Grass plant response rating: scale 0 (no effect) to 100 (complete control)
# Summary of the method: as §1
# rice = assay: Test B flooded paddy test; format: in vivo, Oryza sativa; conditions: 1000 g ai/ha, scale 0 to 100 (0 no effect, 100 complete control)
# Summary of the method: as §3
# wheat = assay: Test B postemergence herbicide test; format: in vivo, Triticum aestivum; parameters: key to Wheat plant response rating: 0 = no effect, 100 = complete control
# Summary of the method: as §2
# corn = assay: Test B pre-/postemergence herbicide test; format: in vivo, Zea mays; conditions: for Plant response rating (0 to 100 scale), Corn: 0 is no effect, preemergence
# Summary of the method: as §1
# barnyardgrass [3] = assay: Test B flooded paddy test; format: in vivo, Echinochloa crus-galli; conditions: 1000 g ai/ha, scale 0 to 100 (0 no effect, 100 complete control)
# Summary of the method: as §3
# [4] = 125 g ai/ha, 100 is complete control
# [5] = 125 g ai/ha, visual rating, scale 0 (no effect) to 100 (complete control), postemergence
# [6] = postemergence, 500 g ai/ha, scale 0 to 100, 0 is no effect, 100 is complete control
# [7] = 125 g ai/ha, visual rating, postemergence
# [8] = 500 g ai/ha, scale 0 to 100, 0 no effect, 100 complete control, preemergence
# [9] = Postemergence, 500 g ai/ha, scale 0 (no effect) to 100 (complete control)
Structure (SMILES),"Plant response rating (0 to 100 scale), Barnyardgrass (barnyardgrass [1]; [4])",Barnyardgrass plant response rating (barnyardgrass [1]; [5]),"Plant response rating (0 to 100 scale), Morningglory (morningglory; 125 g ai/ha)",Morningglory plant response rating (morningglory; [7]),"Morningglory plant response rating (morningglory; Postemergence, 500 g ai/ha)","Plant response rating (0 to 100 scale), Foxtail, Giant (giant foxtail; [4])","Foxtail, Giant plant response rating (giant foxtail; [5])","Oat, Wild plant response rating (wild oat; [7])","Oat, Wild plant response rating (wild oat; Postemergence, 500 g ai/ha)","Plant response rating (0 to 100 scale), Cocklebur (cocklebur; [4])",Cocklebur plant response rating (cocklebur; [5]),"Plant response rating (0 to 100 scale), Crabgrass, Large (large crabgrass; [4])","Crabgrass, Large plant response rating (large crabgrass; [5])","Sedge, Umbrella plant response rating [2]",Blackgrass plant response rating (blackgrass; [5]),"Plant response rating (0 to 100 scale), Pigweed (pigweed; 125 g ai/ha)",Pigweed plant response rating (pigweed; [7]),"Pigweed plant response rating (pigweed; Postemergence, 500 g ai/ha)",Ducksalad plant response rating (ducksalad),"Plant response rating (0 to 100 scale), Lambsquarters (lambsquarters; 125 g ai/ha)",further results
CCOC(=O)c1cccc(NC(=O)c2nn(C(C)(C)CC)nc2CC)c1 [Compound 375],20,30,10,20,40,50,40,40,50,0,30,20,20,80,30,70,40,80,20,50,"Barnyardgrass plant response rating (barnyardgrass [1]; [6]): 70; Foxtail, Giant plant response rating (giant foxtail; [6]): 70; Cocklebur plant response rating (cocklebur; [6]): 60; Crabgrass, Large plant response rating (large crabgrass; [6]): 40; Blackgrass plant response rating (blackgrass; [6]): 40; Lambsquarters plant response rating (lambsquarters; [7]): 20; Lambsquarters plant response rating (lambsquarters; Postemergence, 500 g ai/ha): 40; Plant response rating (0 to 100 scale), Surinam Grass (Surinam grass; 125 g ai/ha): 40; Surinam Grass plant response rating (Surinam grass; [7]): 20; Surinam Grass plant response rating (Surinam grass; Postemergence, 500 g ai/ha): 30; Rice plant response rating (rice): 40; Wheat plant response rating (wheat; [5]): 30; Wheat plant response rating (wheat; [8]): 30; Wheat plant response rating (wheat; [9]): 40; Plant response rating (0 to 100 scale), Corn (corn; [4]): 0; Corn plant response rating (corn; [5]): 20; Corn plant response rating (corn; [6]): 40; Barnyardgrass plant response rating (barnyardgrass [3]): 40"
CCc1nn(C(C)(C)C)nc1C(=O)Nc1cccc(C(=O)N(C)CC)c1 [Compound 384],90,0,10,30,40,90,10,10,30,0,30,90,10,80,20,90,30,70,80,100,"Barnyardgrass plant response rating (barnyardgrass [1]; [6]): 30; Foxtail, Giant plant response rating (giant foxtail; [6]): 30; Cocklebur plant response rating (cocklebur; [6]): 40; Crabgrass, Large plant response rating (large crabgrass; [6]): 40; Blackgrass plant response rating (blackgrass; [6]): 50; Lambsquarters plant response rating (lambsquarters; [7]): 70; Lambsquarters plant response rating (lambsquarters; Postemergence, 500 g ai/ha): 80; Plant response rating (0 to 100 scale), Surinam Grass (Surinam grass; 125 g ai/ha): 100; Surinam Grass plant response rating (Surinam grass; [7]): 10; Surinam Grass plant response rating (Surinam grass; Postemergence, 500 g ai/ha): 60; Rice plant response rating (rice): 90; Wheat plant response rating (wheat; [5]): 10; Wheat plant response rating (wheat; [8]): 100; Wheat plant response rating (wheat; [9]): 20; Plant response rating (0 to 100 scale), Corn (corn; [4]): 80; Corn plant response rating (corn; [5]): 0; Corn plant response rating (corn; [6]): 10; Barnyardgrass plant response rating (barnyardgrass [3]): 90"
CCNC(=O)c1cccc(NC(=O)c2nn(C(C)(C)C)nc2C)c1 [Compound 392],90,10,90,20,70,80,20,0,30,40,20,100,10,80,20,100,60,60,80,100,"Barnyardgrass plant response rating (barnyardgrass [1]; [9]): 20; Foxtail, Giant plant response rating (giant foxtail; [9]): 30; Cocklebur plant response rating (cocklebur; [9]): 40; Crabgrass, Large plant response rating (large crabgrass; [9]): 20; Blackgrass plant response rating (blackgrass; [9]): 60; Lambsquarters plant response rating (lambsquarters; [7]): 70; Lambsquarters plant response rating (lambsquarters; Postemergence, 500 g ai/ha): 90; Plant response rating (0 to 100 scale), Surinam Grass (Surinam grass; 125 g ai/ha): 70; Surinam Grass plant response rating (Surinam grass; [7]): 10; Surinam Grass plant response rating (Surinam grass; Postemergence, 500 g ai/ha): 20; Rice plant response rating (rice): 80; Wheat plant response rating (wheat; [5]): 0; Wheat plant response rating (wheat; [8]): 100; Wheat plant response rating (wheat; [9]): 10; Plant response rating (0 to 100 scale), Corn (corn; [4]): 70; Corn plant response rating (corn; [5]): 0; Corn plant response rating (corn; [9]): 20; Barnyardgrass plant response rating (barnyardgrass [3]): 90"
Cc1nn(C(C)(C)C)nc1C(=O)Nc1cccc(C(=O)N2CC=CC2)c1 [Compound 393],90,10,20,30,50,80,20,10,30,30,30,90,10,90,20,100,40,50,90,90,"Barnyardgrass plant response rating (barnyardgrass [1]; [9]): 20; Foxtail, Giant plant response rating (giant foxtail; [9]): 30; Cocklebur plant response rating (cocklebur; [9]): 60; Crabgrass, Large plant response rating (large crabgrass; [9]): 20; Blackgrass plant response rating (blackgrass; [9]): 40; Lambsquarters plant response rating (lambsquarters; [7]): 60; Lambsquarters plant response rating (lambsquarters; Postemergence, 500 g ai/ha): 80; Plant response rating (0 to 100 scale), Surinam Grass (Surinam grass; 125 g ai/ha): 80; Surinam Grass plant response rating (Surinam grass; [7]): 10; Surinam Grass plant response rating (Surinam grass; Postemergence, 500 g ai/ha): 10; Rice plant response rating (rice): 80; Wheat plant response rating (wheat; [5]): 0; Wheat plant response rating (wheat; [8]): 100; Wheat plant response rating (wheat; [9]): 10; Plant response rating (0 to 100 scale), Corn (corn; [4]): 40; Corn plant response rating (corn; [5]): 0; Corn plant response rating (corn; [9]): 20; Barnyardgrass plant response rating (barnyardgrass [3]): 90"
CCc1nn(C(C)(C)C)nc1C(=O)Nc1cccc(C(=S)N(C)C)c1 [Compound 395],90,20,80,40,80,100,30,40,40,60,70,100,20,90,20,100,40,60,90,100,"Barnyardgrass plant response rating (barnyardgrass [1]; [9]): 70; Foxtail, Giant plant response rating (giant foxtail; [9]): 50; Cocklebur plant response rating (cocklebur; [9]): 80; Crabgrass, Large plant response rating (large crabgrass; [9]): 50; Blackgrass plant response rating (blackgrass; [9]): 40; Lambsquarters plant response rating (lambsquarters; [7]): 80; Lambsquarters plant response rating (lambsquarters; Postemergence, 500 g ai/ha): 100; Plant response rating (0 to 100 scale), Surinam Grass (Surinam grass; 125 g ai/ha): 90; Surinam Grass plant response rating (Surinam grass; [7]): 20; Surinam Grass plant response rating (Surinam grass; Postemergence, 500 g ai/ha): 60; Rice plant response rating (rice): 80; Wheat plant response rating (wheat; [5]): 20; Wheat plant response rating (wheat; [8]): 100; Wheat plant response rating (wheat; [9]): 30; Plant response rating (0 to 100 scale), Corn (corn; [4]): 90; Corn plant response rating (corn; [5]): 30; Corn plant response rating (corn; [9]): 60; Barnyardgrass plant response rating (barnyardgrass [3]): 90"
